pKd: −log10 of the molar value. Entries after “also recorded” stand apart in the source; their conditions may differ.
Assays:
[1] = target: T1, BmGr9 (Bombyx mori, UniProt B3GTD7); assay: Cell-based GCaMP calcium flux assay, wild-type BmGr9; conditions: for Activation of BmGr9 (change in fluorescence) by sweet compound: 100 mM sweet compound, HEK293 cells with BmGr9 plus GCaMP vs GCaMP only
[2] = target: T1, BmGr9; assay: Intrinsic tryptophan fluorescence of detergent-solubilized purified BmGr9; format: binding
[3] = tested on: BmGr9 Q443, F444, and Q445 mutants; assay: GCaMP assay, L-sorbose on BmGr9 Q443, F444 and Q445 mutants; format: cell-based, Bombyx mori; conditions: author rebuttal
[4] = target: T1, BmGr9; conditions: electrophysiology; ref Sato et al. PNAS, 2011; cited from earlier work
[5] = target: Bombyx mori gustatory receptor Gr9 (BmGr9) (Bombyx mori) (UniProt B3GTD7); assay: native gel or EMSA; Coomassie-stained denaturing and native gels of purified BmGr9; effective molecular weight approximately 700 kDa including detergent micelle

T1 sequence (B3GTD7 entry or part of it): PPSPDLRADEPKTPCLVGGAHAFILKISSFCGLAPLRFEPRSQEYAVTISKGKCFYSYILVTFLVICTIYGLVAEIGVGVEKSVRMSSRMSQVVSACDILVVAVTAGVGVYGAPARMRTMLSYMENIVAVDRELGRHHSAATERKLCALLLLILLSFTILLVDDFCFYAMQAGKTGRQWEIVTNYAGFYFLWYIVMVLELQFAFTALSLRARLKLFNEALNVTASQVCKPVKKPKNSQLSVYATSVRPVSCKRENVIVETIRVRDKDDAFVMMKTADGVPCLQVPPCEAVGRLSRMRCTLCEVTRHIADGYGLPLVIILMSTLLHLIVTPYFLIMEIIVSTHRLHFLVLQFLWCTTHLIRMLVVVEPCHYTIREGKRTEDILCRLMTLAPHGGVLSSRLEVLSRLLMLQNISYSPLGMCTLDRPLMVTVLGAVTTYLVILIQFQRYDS

O=C(CO)[C@@H](O)[C@H](O)[C@@H](O)CO [L-sorbose]
Activation of BmGr9 (change in fluorescence) by sweet compound [1]: not statistically different than GCaMP alone; also recorded: did not activate BmGr9 significantly
maximum activity in dose-response ([1]; titration, n = 5, vs GCaMP-only control wells): less than control wells with GCaMP only
pKd ([2]; KD (apparent affinity, tryptophan fluorescence), purified BmGr9 in digitonin, n = 4, 95% CI in parentheses): 1.20
KD (apparent affinity, tryptophan fluorescence) ([2]; purified BmGr9 in digitonin, n = 4, 95% CI in parentheses): affinity close to that of D-fructose
activation of BmGr9 mutants by L-sorbose [3]: does not appear that L-sorbose can activate any of these BmGr9 mutants
activation of BmGr9 in oocytes [4]: not to activate

OC[C@H]1O[C@H](O[C@]2(CCl)O[C@H](CCl)[C@@H](O)[C@@H]2O)[C@H](O)[C@@H](O)[C@H]1Cl [sucralose]
Activation of BmGr9 (change in fluorescence) by sweet compound [1]: significantly different activity

OC[C@H]1O[C@@](CO)(O[C@H]2O[C@H](CO)[C@@H](O)[C@H](O)[C@H]2O)[C@@H](O)[C@@H]1O [sucrose]
blue shift in the tryptophan fluorescence emission spectrum ([2]; titration of purified BmGr9): did not induce a shift

Bombyx mori gustatory receptor Gr9 (BmGr9) (from UniProt B3GTD7 2-449)
stoichiometry N [5]: 4

Reference: PMC11062906 (Nature, 2024)
